Here are results for four compounds from article PMC6199279, “Design of Peptoid-peptide Macrocycles to Inhibit the β-catenin TCF Interaction in Prostate Cancer” (Nature Communications, 2018).

For data set [1], the system named is TOP-Flash Wnt luciferase reporter. As to the kind of experiment: TOP-Flash Wnt luciferase reporter assay in LNCaP-abl cells. The class given is cell-based. As to conditions: for Effect of control Wnt inhibitors on the Wnt luciferase reporter: dose response, commercially available inhibitors (Supplementary Fig. 5). An excerpt:
(§1) Using a TOP-Flash Wnt luciferase reporter, we tested the 12 oligomers identified from in silico modeling for inhibitory activity (Fig. 2b). […] We also employed a 3 × -Androgen Response Element (ARE) luciferase reporter to measure the effect on AR activity. […] As additional controls, we obtained previously developed, commercially available Wnt inhibitors and tested them in the Wnt luciferase assay (Supplementary Fig. 5).
(§2) We next characterized the dose response curves for compound 13 in the Wnt and AR luciferase reporters. The linear version of 13 (linear 13: NH2-|N-mpp, N-dmp, N-ipp, N-Smpe, N-Smpe, D-Ala|-OH) was used as a control compound. […] To test direct binding, we pre-formed dynamic light scattering (DLS) with β-catenin in the presence of vehicle, compound 13, and α-cyclodextrin. […] HEK293 cells were transiently transfected with a plasmid expressing full length, myc-tagged TCF4. After 48 h treatment with either vehicle (DMSO) or 10 µM 13, cells were lysed and myc-TCF4 protein was immunoprecipitated.
LNCaP-abl and LNCaP-95 cells were cultured in indicator free RPMI 1640 media (Life) supplemented with 10% charcoal stripped FBS, 1% pennicillin/streptomycin, and 1% L-Glutamine. HEK-293 Cells were cultured in DMEM media (Life) supplemented with 10%FBS and 1% pennicillin/streptomycin. A549 and U2OS cells were cultured in RPMI 1640 media (Life) and McCoy’s 5 A modified media (Life), respectively, both supplemented with 10%FBS and 1% pennicillin/streptomycin. LNCaP-abl, and LNCaP-95 cell lines were generous gifts from Z. Culig (Innsbruck Medical University, Austria) and J. Isaacs (Johns Hopkins University, Baltimore, MD), respectively. Cell lines were authenticated by STR profiling (Genetica Cell Line Testing; Burlington, NC). A549 and U2OS were purchased from ATCC (product numbers CCL-185 and HTB-96). Cell lines were routinely screened for mycoplasma. Luciferase assays were conducted using stably transfected TOP-flash and 3xARE LNCaP-abl cell lines. For the Wnt pathway, TOP-Flash LNCaP-abl cells were treated with 1 nM siAPC (a 1:1:1 mix of Ambion Silencer Silect siAPC RNA, ID#s s1433, s1434, s1435) for 24 h and seeded into 384-well plates at 5000 cells/well, followed by 24 h of treatment with compound. For the AR-pathway, 3xARE LNCaP-abl cells were seeded into 384-well plates at 5000 cells per well, treated for 48 h with compound, with the addition of R1881 for the final 8 h. Both were measured using the ONE-Glo detection kit (Promega) and data is standardized to CellTiter-Fluor (Promega) viability readings to account for potential variations in well to well cell number. Control Wnt inhibitors were purchased from Sigma with the exception of PRI-724 which was purchased from Selleckchem. Co-immunoprecipitation was carried out using HEK293 cells transfected with either myc-TCF (addgene #32738) or myc-TCF dominant negative (addgene #32739) followed by 48 h of treatment with compound. Cells were lysed using Triton lysis buffer and 1 mg total protein was incubated overnight at 4 C with 40 µl anti-cMyc magnetic beads (Thermo). Total protein concentration in cell lysates were determined using Pierce Rapid Gold BCA Protein Assay Kit (Thermo). The beads were washed 3× with lysis buffer then boiled in 2X sample loading dye. SDS-PAGE and western blotting were performed using anti-Myc (CST 2276) and anti-β-catenin (CST 8480). Both antibodies were diluted in blocking buffer 1:1000 and incubated overnight at 4 C with the membrane. […]
(Reporter assays use an easily measured gene product as a stand-in for the process of interest.)

On the set-up of data set [2]: method as in PMID 24019458. As to conditions: mouse xenograft experiments, direct tumor injection required; cited from earlier work.
Data set [3] relates to Wnt signaling in zebrafish embryos. As to conditions: 50 µl of 30 µM compound added at ~5.5 hpf, BIO added about 30 min later; eight fish per group.
Experimental: To evaluate the efficacy of 13 in vivo, we utilized a Danio rerio (zebrafish) model. […] To test this, BIO was added to zebrafish embryos at 6 hpf with and without 13 as described in Fig. 6a.
The zebrafish phenotypic assay was conducted using wild-type zebrafish embryos seeded into a 96-well round bottom plate at 4 hpf in 50 µl of Fish Water (60 mg/l sea salt, Instant Ocean, Blacksburg, VA, USA) supplemented with 1 mg per L Methylene Blue (Sigma-Aldrich). The embryos were not dechorionated. At 50% epiboly, roughly 5.5 hpf, 50 µl of 30 µM 13 or Linear 13 was added. About 30 min later at shield stage, 50 µl of 6 nM (3×) BIO was added. The embryos were then visualized for the presence of eyes and imaged at 30 hpf. Zebrafish embryos were randomly assigned to non-blinded treatment groups, none were excluded. Sample size was determined with a power calculation to achieve statistical significance (alpha = 0.05, beta = 0.2) if only 60% of the fish had developed eyes.
Data set [4] concerns AR luciferase reporter (3xARE). As to the kind of experiment: 3x-Androgen Response Element (ARE) luciferase reporter assay in LNCaP-abl cells. It counts as cell-based. Conditions: 3xARE LNCaP-abl cells, 48 h compound, androgen-activated; read-out: IC50 for inhibition of the AR luciferase reporter.
Source text: as §1, §2
LNCaP-abl and LNCaP-95 cells were cultured in indicator free RPMI 1640 media (Life) supplemented with 10% charcoal stripped FBS, 1% pennicillin/streptomycin, and 1% L-Glutamine. HEK-293 Cells were cultured in DMEM media (Life) supplemented with 10%FBS and 1% pennicillin/streptomycin. A549 and U2OS cells were cultured in RPMI 1640 media (Life) and McCoy’s 5 A modified media (Life), respectively, both supplemented with 10%FBS and 1% pennicillin/streptomycin. LNCaP-abl, and LNCaP-95 cell lines were generous gifts from Z. Culig (Innsbruck Medical University, Austria) and J. Isaacs (Johns Hopkins University, Baltimore, MD), respectively. Cell lines were authenticated by STR profiling (Genetica Cell Line Testing; Burlington, NC). […] Both were measured using the ONE-Glo detection kit (Promega) and data is standardized to CellTiter-Fluor (Promega) viability readings to account for potential variations in well to well cell number. […] Total protein concentration in cell lysates were determined using Pierce Rapid Gold BCA Protein Assay Kit (Thermo). […]

In a further data set the target is T1, β-catenin (Homo sapiens, UniProt P35222).
T1 construct: His6-β-catenin armadillo domain, AA134-668; made in house; host or cells: E. coli BL21 DL3 (NEB)
T1 sequence (P35222 134-668): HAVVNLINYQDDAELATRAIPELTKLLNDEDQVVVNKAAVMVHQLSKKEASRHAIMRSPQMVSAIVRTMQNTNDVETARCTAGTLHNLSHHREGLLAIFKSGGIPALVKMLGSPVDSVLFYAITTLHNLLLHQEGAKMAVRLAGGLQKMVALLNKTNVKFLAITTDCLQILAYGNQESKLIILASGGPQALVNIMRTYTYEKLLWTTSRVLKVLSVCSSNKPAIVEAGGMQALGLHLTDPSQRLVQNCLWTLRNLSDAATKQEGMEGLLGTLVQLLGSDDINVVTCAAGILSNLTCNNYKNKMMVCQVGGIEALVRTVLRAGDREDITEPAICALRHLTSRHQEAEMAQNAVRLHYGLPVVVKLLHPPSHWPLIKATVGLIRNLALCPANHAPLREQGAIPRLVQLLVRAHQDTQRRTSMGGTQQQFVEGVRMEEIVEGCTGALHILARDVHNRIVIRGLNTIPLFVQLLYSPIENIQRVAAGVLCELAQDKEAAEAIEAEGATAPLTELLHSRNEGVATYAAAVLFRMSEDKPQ
As to the kind of experiment: Dynamic light scattering of β-catenin. It counts as binding. Conditions: 10 µM compound vs 1% DMSO vehicle. The procedure: as §2

Numbered stars: 1 amine (or outer) side, 2 acyl side, 3 side chain; on linkers, the order of the positions; unused ones are H or OH. Square brackets hold non-standard residues; d marks the D form. Peptide text beside a SMILES is read from it. N(2-(2-PhOPh)Et)Gly = O=C(O)CNCCc1ccccc1Oc1ccccc1; Gly(N-3,5-(OMe)2-Ph) = COc1cc(NCC(=O)O)cc(OC)c1; X1 = COc1ccc([C@H](C)N(CC(=O)[*:2])[*:1])cc1; N((CH2)3OiPr)Gly = CC(C)OCCCNCC(=O)O

As for `C[C@H]1[C@H]2N(C(=O)CN(C)N2C(=O)NCc2ccccc2)[C@@H](Cc2ccc(OP(=O)(O)O)cc2)C(=O)N1Cc1cccc2cccnc12` [PRI-724, reference compound], the “Effect of control Wnt inhibitors on the Wnt luciferase reporter” value in data set [1] is listed as “did inhibit the luciferase reporter”. On to `CCc1ccc(-c2nc(CSCC(=O)NCCc3ccccc3)c(C)o2)cc1` [iCRT3, reference compound], for which the “Effect of control Wnt inhibitors on the Wnt luciferase reporter” value in data set [1] is listed as “did inhibit the luciferase reporter”. Also, in data set [2], the Systemic stability result is on record as “not systemically stable”. One may read the IC50 as the concentration that inhibits the measured activity by half. Regarding `COc1ccc([C@H](C)N(CC(=O)N[C@H](C)C(=O)O)C(=O)CN(C(=O)CN(CCCOC(C)C)C(=O)CN(C(=O)CNCCc2ccccc2Oc2ccccc2)c2cc(OC)cc(OC)c2)[C@@H](C)c2ccc(OC)cc2)cc1` [linear 13, NH2-|N-mpp, N-dmp, N-ipp, N-Smpe, N-Smpe, D-Ala|-OH] (H-[N(2-(2-PhOPh)Et)Gly][Gly(N-3,5-(OMe)2-Ph)][N((CH2)3OiPr)Gly][X1][X1][dA]-OH), the IC50 in data set [1] (TOP-Flash LNCaP-abl cells, siAPC knockdown, 24 h compound, ± SD of three replicates, read-out: IC50 for Wnt luciferase inhibition) stood at 3.27 µM; in data set [4] it was 7.63 µM. The “Fish that developed eyes, BIO plus compound” value in data set [3] is listed as 6/8. For `OC[C@H]1O[C@@H]2O[C@H]3[C@H](O)[C@@H](O)[C@@H](O[C@H]4[C@H](O)[C@@H](O)[C@@H](O[C@H]5[C@H](O)[C@@H](O)[C@@H](O[C@H]6[C@H](O)[C@@H](O)[C@@H](O[C@H]7[C@H](O)[C@@H](O)[C@@H](O[C@H]1[C@H](O)[C@H]2O)O[C@@H]7CO)O[C@@H]6CO)O[C@@H]5CO)O[C@@H]4CO)O[C@@H]3CO` [α-cyclodextrin, reference compound], the “Shift in measured hydrodynamic radius of β-catenin (DLS)” value on β-catenin is “did not cause the same shift”.
